The text below walks through data of US10653749B2, “Targeting GIV-GEF-GI signaling for treating diverse diseases” (The Regents of the University of California, priority 2015, dated 2020).

“Also recorded” adds a separate entry of the source.

For assay [1], the system named is GIV, IRS1 and Akt phosphorylation. Nature of the assay: Metabolic insulin signaling in L6 cells by immunoblotting. The class given is cell-based, rat. The procedure:
(§1) Transfection was carried out with GeneJuice (Novagen) for DNA plasmids or Oligofectamine (Invitrogen) for siRNA oligos according to manufacturer's protocols. Silencer negative Control scrambled (Scr) siRNA used as control was purchased from Ambion and the previously validated (Enomoto et al., 2005) GIV siRNA sequence used was custom-ordered from Dharmacon. For TAT-construct transduction, cells were incubated with 300-800 nM of the TAT-proteins for 30 min at 37° C. prior to three washes with PBS and addition of fresh growth media. For assays involving insulin (Novagen) stimulation of TAT-treated cells, such stimulation was carried out 90 min after transduction.
(§2) Unless otherwise indicated, serum starvation of cells for use in experiments involving insulin stimulation was carried out by growing cells overnight in the presence of no serum (i.e., 0% FBS) in the case of Cos7 and L6 cells, or in the presence of 0.2% FBS in the case of HeLa cells. To induce IR, cells were pre-treated with Sodium Palmitate (PA; Sigma-Aldrich) (0.5 mM, stock solution at 5 mM/5% FFA-free BSA in ethanol) or vehicle control (5% FFA-free BSA in ethanol) for 16 h. To reverse IR with TZDs, cells were treated with 50 μM Pioglitazone (Pio) (Sigma-Aldrich) or DMSO (vehicle control) for 18 h prior to stimulation with 100 nM insulin. Treatment with PKCθ pseudo-substrate inhibitor (Santa Cruz Biotechnologies) was performed at 10 μM for 16 h.
Protein samples for immunoblotting were run on SDS/PAGE gels and transferred onto PVDF membranes (Millipore). Membranes were blocked with PBS containing 5% non-fat milk (or with 5% BSA when probing for phosphorylated proteins) before incubation with primary antibodies. GIV was detected using rabbit anti-GIV coiled-coil (Millipore) (1:500); GIV-CT (Santa Cruz Biotechnologies) (1:500); phospho-Tyr1764-GIV (1:500) and phospho-Ser1689-GIV (21st Century Biochemicals) (1:250) antibodies. Other antibodies used in this work include rabbit polyclonal antibodies against Gαi3 (1:333), pan-GP (1:250) and phospho-IRS1 (1:500) from Santa Cruz Biotechnologies; and phospho-Akt (1:250); total Akt (1:250); phospho-ERK (1:250); phospho-AS160 (1:250); total InsRβ (1:500) and total IRS1 (1:500) from Cell signaling. Mouse monoclonal Abs against phospho-InsRβ (1:250), His (1:1000), β-tubulin (1:1000), GFP (1:500) from Santa Cruz Biotechnologies, and control IgG (Bio-Rad Laboratories) were commercially obtained. Goat anti-rabbit and goat anti-mouse Alexa Fluor 680 or IRDye 800 F(ab′)2 secondary antibodies were purchased from Li-Cor Biosciences. Images were processed with ImageJ software (NIH) and assembled as figure panels using Photoshop and Illustrator software (Adobe).

Assay [2] deals with L6 myotubes. Nature of the assay: Fluorometric 2-deoxyglucose uptake assay after insulin stimulation. In kind it is cell-based, rat. The procedure:
as §1, §2
Glucose uptake assays were performed without the use of radioisotopes as described previously (Yamamoto et al., 2006). HeLa and L6 cells grown in 6-well plates were stimulated with insulin in KRH Buffer [50 mM HEPES, 137 mM NaCl, 4.7 mM KCl, 1.85 mM CaCl2, 1.3 mM MgSO4, and 0.1% (w/v) BSA-FFA free, pH 7.4]. Cells were incubated with 1 mM 2-deoxyglucose (2-DG) for 20 min, washed, and subsequently lysed with 0.1 N NaOH. The lysates were transferred into eppendorf tubes and samples were incubated in a water bath maintained at 80° C. for 45 min to degrade endogenous NAD(P)H and NAD(P)^+. An equal volume each of 0.1 N HCl and Triethanolamine (200 mM TEA, pH 8.1) buffer were added to each tube. Samples were subsequently mixed with assay solution [50 mM TEA, 0.02% BSA-FFA free, 10 μM NAD(P)^+, 0.2 U/ml Diaphorase, 6 nM Resazurin sodium, 15 U/ml G6PDH (Santa Cruz Biotechnologies)] and incubated at 37° C. for 90 min. Fluorescence intensity (λex=550 nM, λem=590 nM) was determined using a Tecan Inifinite M1000 PRO and normalized to total protein, as determined using BCA assay (Thermo Scientific).

In assay [3] the test system is GIV binding to GST-Gαi3 [preloaded with GDP]. Briefly: GST-Gαi3 pulldown of GIV from lysates of PA-treated L6 myoblasts. Particulars: L6 treated with PA 0.5 mM, 16 h. The procedure: (§3) Purified GST-Gαi3, GST-tagged IRS1 domains or GST alone were immobilized on glutathione-Sepharose beads (GE Healthcare) for 1 h at room temperature as described before (Garcia-Marcos et al., 2012; Ghosh et al., 2010; Ghosh et al., 2008; Lin et al., 2011). L6 lysates or His-GIV CT protein were added to each tube, and binding reactions were carried out for 4 h at 4° C. with constant tumbling in binding buffer [50 mM Tris-HCl (pH 7.4), 100 mM NaCl, 0.4% (v:v) Nonidet P-40, 10 mM MgCl2, 5 mM EDTA, 2 mM DTT, protease inhibitor mixture]. Beads were washed (4×) with 1 mL of wash buffer [4.3 mM Na2HPO4, 1.4 mM KH2PO4 (pH 7.4), 137 mM NaCl, 2.7 mM KCl, 0.1% (v:v) Tween 20, 10 mM MgCl2, 5 mM EDTA, 2 mM DTT] and bound complexes were eluted by boiling in Laemmli's sample buffer. When GST-Gαi3 was used in the assay, both binding buffer and washing buffer were supplemented with 30 μM GDP and bound proteins were eluted by incubating at 37° C.

Assay [4] addresses T1, GST-tagged domains of IRS1 (Rattus norvegicus, UniProt P35570).
T1 construct: GST-tagged IRS1 domains (N: aa 2-516, M: aa 526-859 and C: 900-1235); made in house
T1 sequence (P35570 2-516): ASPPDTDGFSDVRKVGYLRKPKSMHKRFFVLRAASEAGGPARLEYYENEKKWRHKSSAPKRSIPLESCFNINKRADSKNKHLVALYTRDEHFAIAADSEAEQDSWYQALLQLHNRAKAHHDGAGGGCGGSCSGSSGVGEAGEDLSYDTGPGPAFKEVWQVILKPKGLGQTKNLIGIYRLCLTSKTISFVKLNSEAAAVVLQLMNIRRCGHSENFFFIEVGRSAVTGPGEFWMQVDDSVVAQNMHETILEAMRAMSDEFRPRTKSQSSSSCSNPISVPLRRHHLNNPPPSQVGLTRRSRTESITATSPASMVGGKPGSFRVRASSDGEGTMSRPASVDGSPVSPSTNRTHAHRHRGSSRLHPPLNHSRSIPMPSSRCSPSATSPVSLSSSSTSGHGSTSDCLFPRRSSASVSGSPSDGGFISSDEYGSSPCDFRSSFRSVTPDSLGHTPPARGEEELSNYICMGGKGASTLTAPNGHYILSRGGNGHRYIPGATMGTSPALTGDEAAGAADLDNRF
Nature of the assay: Pulldown of recombinant His-GIV-CT with GST-tagged IRS1 domains. In kind it is binding. Particulars: recombinant proteins. The procedure: as §3

With `CCCCCCCCCCCCCCCC(=O)[O-].[Na+]` [PA, Sodium Palmitate, reference compound], in assay [1] (L6 cells treated with PA), the “phosphorylation of GIV at Y1764” value is “suppressed”. For the same molecule, the “phosphorylation of GIV at S1689” value in assay [1] (L6 cells treated with PA (0.5 mM, 16 h)) is “enhanced”. For the same molecule, the “induction of IR (glucose-uptake response to insulin)” value in assay [2] (L6-GIV-SA cells (S1689A)) is “resistant to PA”; in assay [2] (L6-GIV-WT cells), “induced IR”. Also, the “GIV's ability to bind Gi (Gαi3)” value in assay [3] is given as “reduced; also recorded: loss of binding”.

B1: His-GIV-CT: Recombinant His-tagged GIV-CT (aa 1660-1870) expressed from pET28b (protein)
chain: ETLESRHHKIKTGSPGSEVVTLQQFLEESNKLTSVQIKSSSQENLLDEVMKSLSVSSDFLGKDKPVSCGLARSVSGKTPGDFYDRRTTKPEFLRPGPRKTEDTYFISSAGKPTPGTQGKIKLVKESSLSRQSKDSNPYATLPRASSVISTAEGTTRRTSIHDFLTKDSRLPISVDSPPAAADSNTTAASNVDKVQESRNSKSRSREQQSS
modifications: left off: small tags and cut ends
notes: Recombinant His-tagged GIV-CT (aa 1660-1870) expressed from pET28b
Take B1: in assay [4], the “binding to IRS1 domains” value is “specifically bound the N-terminus of IRS1”.
